{"source": "patent US10577349B2", "about": "(Sanford Burnham Prebys Medical Discovery Institute, priority 2015, dated 2020)", "key": {"[1]": {"target": "HCV cap-dependent translation", "assay": "In vitro translation assay, FF-HCV-Ren construct, cap-dependent (FF luciferase)", "type": "biochemical, rabbit reticulocyte lysates", "summary_of_the_method": "(§1)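 Rabbit reticulocyte lysate with -Met/-Leu translation mixes (1:1) was pre-incubated with compounds 1 h at room temperature, then programmed with 0.1 μg bicistronic RNA per well and translated 2 h at 30° C. FF luciferase (cap-dependent) and then Ren luciferase (IRES-driven) were read by Dual-Glo luminescence.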"}, "[2]": {"target": "T1, eIF4F complex (Homo sapiens, UniProt Q04637)", "T1 construct": "PLX4032), or Compound 38; endogenous in cells; host or cells: A375, A375R, Lu1205R, WM793R melanoma cells", "assay": "m7GTP pull-down assay, UACC903 melanoma cells", "type": "cell-based", "protocol": "As previously described (Dowling R J, et al. mTORC1-mediated cell proliferation, but not cell growth, controlled by the 4E-BPs. Science. 2010; 328:1172-6), cells growing in 100 mm plates were washed (cold PBS), collected, and lysed in 50 mM MOPS/KOH (7.4), 100 mM NaCl, 50 mM NaF, 2 mM EDTA, 2 mM EGTA, 1% NP40, 1% Na-DOC, 7 mM β-mercaptoethanol, protease inhibitors and phosphatase inhibitor cocktail (Roche). Lysates were incubated with m7-GDP-agarose beads (Jena Bioscience) for 20 minutes, washed 4 times with the washing buffer containing 50 mM MOPS/KOH (7.4), 100 mM NaCl, 50 mM NaF, 0.5 mM EDTA, 0.5 mM EGTA, 7 mM (3-mercaptoethanol, 0.5 mM PMSF, 1 mM Na3VO4 and 0.1 mM GTP, and bound proteins were eluted by boiling the beads in loading buffer. m7-GDP-agarose pulled down material was analyzed by Western blot analysis.\nThe dissociation of eIF4G1 from the eIF4F complex was determined using m^7GTP-agarose pull-down, which captures the eIF4F complex. […] Proteins prepared from UACC903 melanoma cells were treated with indicated Compound 38 concentrations and incubated with m^7GTP-agarose beads to capture the eIF4F complex. Shown is dose-dependent inhibition of eIF4G1 binding to eIF4E, concomitant with increased binding of inhibitory 4E-BP1 to eIF4E. Bottom, the total cell lysate."}, "[3]": {"target": "EmCV Cap-independent translation", "assay": "In vitro translation assay, FF-EmCV-Ren construct, cap-independent (Ren luciferase)", "type": "biochemical, rabbit reticulocyte lysates", "summary_of_the_method": "as §1"}, "[4]": {"tested_on": "WM1346 (NRAS mutant) cell line", "assay": "Reverse phase protein array analysis (RPPA), WM1346", "type": "cell-based, human", "conditions": "WM1346, 1 μM, 24 h", "protocol": "UACC903 and WM1346 cells were treated with DMSO (controls) or 1 μM Compound 38 for 24 h in triplicate. Cells were lysed with lysis buffer (1% Triton X-100, 50 mM HEPES, pH 7.4, 150 mM NaCl, 1.5 mM MgCl2, 1 mM EGTA, 100 mM NaF, 10 mM Na pyrophosphate, 1 mM Na3VO4, 10% glycerol, with freshly added protease and phosphatase inhibitors) and centrifuged at 13,000 g for 20 minutes. Denatured protein lysates containing the same amount of protein were then subjected to RPPA analysis at the RPPA Core Facility, Md. Anderson Cancer Center, as previously described (Tibes. R., et al. Reverse phase protein array: validation of a novel proteomic technology and utility for analysis of primary leukemia specimens and hematopoietic stem cells. Molecular cancer therapeutics 5, 2512-2521 (2006)),\nA reverse phase protein array (RPPA) analysis of BRAF- and NRAS-mutant melanomas was performed to identify protein networks affected by Compound 38 (Table 4)."}}, "data": [{"smiles": "O=C(/C=C/c1cncc(F)c1)c1c(-c2ccccc2)c2cc(Cl)ccc2[nH]c1=O", "note": "[Compound 38, 6-Chloro-3-[3-(5-fluoro-pyridin-3-yl)-acryloyl]-4-phenyl-1H-quinolin-2-one]", "values": [{"measurement": "IC50", "setting": "[1]", "value": "2 to 10", "unit": "µM"}, {"measurement": "dissociation of eIF4G1 from the eIF4F complex (m7GTP-agarose pull-down)", "setting": "[2]", "value": "dissociated eIF4G1 from the eIF4E in a dose-dependent manner"}, {"measurement": "IC50", "setting": "[3]", "value": "2 to 10", "unit": "µM"}, {"measurement": "Ratio [Compound 38/DMSO] A-Raf", "setting": "[4]", "value": 0.90}, {"measurement": "Ratio [Compound 38/DMSO] AR", "setting": "[4]", "value": 0.72}, {"measurement": "Ratio [Compound 38/DMSO] ATM", "setting": "[4]", "value": 0.82}, {"measurement": "Ratio [Compound 38/DMSO] ATR", "setting": "[4]", "value": 0.76}, {"measurement": "Ratio [Compound 38/DMSO] BRCA2", "setting": "[4]", "value": 0.90}, {"measurement": "Ratio [Compound 38/DMSO] C-Raf", "setting": "[4]", "value": 0.93}, {"measurement": "Ratio [Compound 38/DMSO] Chk1", "setting": "[4]", "value": 0.94}, {"measurement": "Ratio [Compound 38/DMSO] Ets-1", "setting": "[4]", "value": 0.91}, {"measurement": "Ratio [Compound 38/DMSO] GCN5L2", "setting": "[4]", "value": 0.86}, {"measurement": "Ratio [Compound 38/DMSO] INPP4b", "setting": "[4]", "value": 0.88}, {"measurement": "Ratio [Compound 38/DMSO] MSH6", "setting": "[4]", "value": 0.78}, {"measurement": "Ratio [Compound 38/DMSO] PI3K-p85", "setting": "[4]", "value": 0.96}, {"measurement": "Ratio [Compound 38/DMSO] PI3K-p110-alpha", "setting": "[4]", "value": 0.95}, {"measurement": "Ratio [Compound 38/DMSO] Rad51", "setting": "[4]", "value": 0.78}, {"measurement": "Ratio [Compound 38/DMSO] Raptor", "setting": "[4]", "value": 0.87}, {"measurement": "Ratio [Compound 38/DMSO] Rictor_pT1135", "setting": "[4]", "value": 0.91}, {"measurement": "Ratio [Compound 38/DMSO] S6_pS235_S236", "setting": "[4]", "value": 0.70}, {"measurement": "Ratio [Compound 38/DMSO] S6_pS240_S244", "setting": "[4]", "value": 0.65}, {"measurement": "Ratio [Compound 38/DMSO] Stat5a", "setting": "[4]", "value": 0.67}, {"measurement": "Ratio [Compound 38/DMSO] Tuberin", "setting": "[4]", "value": 0.68}, {"measurement": "Ratio [Compound 38/DMSO] YB1", "setting": "[4]", "value": 0.69}, {"measurement": "Ratio [Compound 38/DMSO] c-Kit", "setting": "[4]", "value": 0.94}, {"measurement": "Ratio [Compound 38/DMSO] c-Myc", "setting": "[4]", "value": 0.80}, {"measurement": "Ratio [Compound 38/DMSO] mTOR", "setting": "[4]", "value": 0.71}, {"measurement": "Ratio [Compound 38/DMSO] mTOR_pS2448", "setting": "[4]", "value": 0.76}, {"measurement": "Ratio [Compound 38/DMSO] p70-S6K_pT389", "setting": "[4]", "value": 0.81}]}]}
